In patent publication US6355799B1, “Substituted benzene compounds, process for their preparation, and herbicidal and defoliant compositions containing them” (ISK Americas Incorporated, priority 1997, dated 2002):

Legend:
Assay type in all cases: in vivo
[1] = tested on: redroot pigweed (Amaranthus retroflexus, AMARE); experiment: Pre-emerge test, greenhouse herbicide activity screening; details: pre-emerge, rated 14 days after application, 0 = no damage, 100 = complete death
Method in brief: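 Sandy loam pots; pre-emerge: sown 1 d pre-spray, surface-watered after, then bottom-watered. Post-emerge: sown 8–21 d before, 2–3 leaf stage, + 0.25% v/v NIS, bottom-watered. Acetone, 187 l/ha track spray, 15–1000 g ai/ha. 0–100 injury score, day 14.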

[2] = tested on: barnyardgrass (Echinochloa crus-galli, ECHCG); experiment: as above; details: pre-emerge, rated 14 days after application, 0 = no damage, 100 = complete death
Method in brief: (§1)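 Rating: 0–100 visual injury, 14 DAA. Application: acetone, 187 l/ha, 15–1000 g ai/ha, flat-fan track sprayer with nozzle 40–45 cm above soil or canopy. Post-emerge runs used 0.25% v/v surfactant on 2–3 leaf plants.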

[3] = tested on: common ragweed (Ambrosia artemisizfolia L., AMBEL); experiment: as above; details: pre-emerge, rated 14 days after application, 0 = no damage, 100 = complete death
Method in brief: as §1

[4] = tested on: green foxtail (Setaria viridis, SETVI); experiment: as above; details: pre-emerge, rated 14 days after application, 0 = no damage, 100 = complete death
Method in brief: as §1

[5] = tested on: ivyleaf morningglory (Ipomoea hederacea, IPOHE); experiment: as above; details: pre-emerge, rated 14 days after application, 0 = no damage, 100 = complete death
Method in brief: as §1

[6] = tested on: johnsongrass (Sorghum halepense, SORHA); experiment: as above; details: pre-emerge, rated 14 days after application, 0 = no damage, 100 = complete death
Method in brief: as §1

[7] = tested on: lambsquarters (Chenopodium album, CHEAL); experiment: as above; details: pre-emerge, rated 14 days after application, 0 = no damage, 100 = complete death
Method in brief: as §1

[8] = tested on: large crabgrass (Digitaria sanguinalis, DIGSA); experiment: as above; details: pre-emerge, rated 14 days after application, 0 = no damage, 100 = complete death
Method in brief: as §1

[9] = tested on: sicklepod (Cassia obtusifolia, CASOB); experiment: as above; details: pre-emerge, rated 14 days after application, 0 = no damage, 100 = complete death
Method in brief: as §1

[10] = tested on: velvetleaf (Abutilon theophrasti, ABUTH); experiment: as above; details: pre-emerge, rated 14 days after application, 0 = no damage, 100 = complete death
Method in brief: as §1

[11] = tested on: field corn (Zea mays L., var. Dekalb 535, CORN); experiment: Pre-emerge test, crop safety; details: pre-emerge, rated 14 days after application, 0 = no damage, 100 = complete death
Method in brief: (§2)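 Plants grown in 10 cm pots of sandy loam mix received acetone-dissolved compounds through a moving flat-fan nozzle. Doses ranged from 15 to 1000 g ai/ha. Pre-emerge pots were seeded one day earlier, post-emerge pots 8–21 days earlier. Fourteen days on, each pot was graded 0–100 for damage.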

[12] = tested on: upland rice (Oryza sp., var. Tebonnet, RICE); experiment: Pre-emerge test, crop safety; details: pre-emerge, rated 14 days after application, 0 = no damage, 100 = complete death
Method in brief: as §2

[13] = tested on: barnyardgrass (Echinochloa crus-galli, ECHCG); experiment: Post-emerge test, greenhouse herbicide activity screening; details: phytotoxicity rating 0-100 (0 no damage, 100 complete death), 14 days after application
Method in brief: (§3)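 Fourteen days after spraying, crop and weed injury was graded visually from 0, no effect, to 100, every plant dead. Test substances were dissolved in acetone and applied at 15–1000 g ai/ha with a flat-fan nozzle. Application was either pre-emergence, one day after sowing, or post-emergence at the 2–3 leaf stage.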

[14] = tested on: common ragweed (Ambrosia artemisizfolia L., AMBEL); experiment: as above; details: phytotoxicity rating 0-100 (0 no damage, 100 complete death), 14 days after application
Method in brief: as §3

[15] = tested on: green foxtail (Setaria viridis, SETVI); experiment: as above; details: phytotoxicity rating 0-100 (0 no damage, 100 complete death), 14 days after application
Method in brief: as §3

[16] = tested on: ivyleaf morningglory (Ipomoea hederacea, IPOHE); experiment: as above; details: phytotoxicity rating 0-100 (0 no damage, 100 complete death), 14 days after application
Method in brief: as §3

[17] = tested on: lambsquarters (Chenopodium album, CHEAL); experiment: as above; details: phytotoxicity rating 0-100 (0 no damage, 100 complete death), 14 days after application
Method in brief: as §3

[18] = tested on: large crabgrass (Digitaria sanguinalis, DIGSA); experiment: as above; details: phytotoxicity rating 0-100 (0 no damage, 100 complete death), 14 days after application
Method in brief: as §3

[19] = tested on: redroot pigweed (Amaranthus retroflexus, AMARE); experiment: as above; details: phytotoxicity rating 0-100 (0 no damage, 100 complete death), 14 days after application
Method in brief: as §3

[20] = tested on: sicklepod (Cassia obtusifolia, CASOB); experiment: as above; details: phytotoxicity rating 0-100 (0 no damage, 100 complete death), 14 days after application
Method in brief: as §3

[21] = tested on: velvetleaf (Abutilon theophrasti, ABUTH); experiment: as above; details: phytotoxicity rating 0-100 (0 no damage, 100 complete death), 14 days after application
Method in brief: as §3

[22] = tested on: field corn (Zea mays L., var. Dekalb 535, CORN); experiment: Post-emerge test, crop safety; details: phytotoxicity rating 0-100 (0 no damage, 100 complete death), 14 days after application
Method in brief: as §2

[23] = tested on: upland rice (Oryza sp., var. Tebonnet, RICE); experiment: Post-emerge test, crop safety; details: phytotoxicity rating 0-100 (0 no damage, 100 complete death), 14 days after application
Method in brief: as §2

Cn1c(C(F)(F)F)cc(=O)n(-c2c(N)cc(OC(F)F)cc2F)c1=O [Compound 1-51]
40: Post-emerge Herbicidal Activity IPOHE ([16]; 63 g ai/ha) | Post-emerge Herbicidal Activity CASOB ([20]; 63 g ai/ha)
100: Pre-emerge Herbicidal Activity AMARE (phytotoxicity rating, scale 0-100) ([1]; 250 g ai/ha) | Pre-emerge Herbicidal Activity CHEAL (phytotoxicity rating, scale 0-100) ([7]; 250 g ai/ha) | Pre-emerge Herbicidal Activity ABUTH (phytotoxicity rating, scale 0-100) ([10]; 250 g ai/ha)
60: Pre-emerge Herbicidal Activity SORHA (phytotoxicity rating, scale 0-100) ([6]; 250 g ai/ha) | Post-emerge Herbicidal Activity CASOB ([20]; 250 g ai/ha) | Post-emerge Herbicidal Activity ABUTH ([21]; 63 g ai/ha)
90: Pre-emerge Herbicidal Activity AMARE (phytotoxicity rating, scale 0-100) ([1]; 63 g ai/ha) | Pre-emerge Herbicidal Activity SETVI (phytotoxicity rating, scale 0-100) ([4]; 250 g ai/ha) | Pre-emerge Herbicidal Activity CHEAL (phytotoxicity rating, scale 0-100) ([7]; 63 g ai/ha) | Pre-emerge Herbicidal Activity DIGSA (phytotoxicity rating, scale 0-100) ([8]; 250 g ai/ha) | Pre-emerge Herbicidal Activity ABUTH (phytotoxicity rating, scale 0-100) ([10]; 63 g ai/ha) | Post-emerge Herbicidal Activity AMBEL ([14]; 250 g ai/ha)
10: Pre-emerge Herbicidal Activity SORHA (phytotoxicity rating, scale 0-100) ([6]; 63 g ai/ha) | Pre-emerge crop damage RICE (phytotoxicity rating, scale 0-100) ([12]; 63 g ai/ha) | Post-emerge Herbicidal Activity ECHCG ([13]; 250 g ai/ha) | Post-emerge Herbicidal Activity DIGSA ([18]; 63 g ai/ha) | Post-emerge Herbicidal Activity CORN (crop damage) ([22]; 63 g ai/ha) | Post-emerge Herbicidal Activity RICE (crop damage) ([23]; 63 g ai/ha)
20: Pre-emerge Herbicidal Activity DIGSA (phytotoxicity rating, scale 0-100) ([8]; 63 g ai/ha) | Post-emerge Herbicidal Activity DIGSA ([18]; 250 g ai/ha) | Post-emerge Herbicidal Activity CORN (crop damage) ([22]; 250 g ai/ha)
0: Pre-emerge Herbicidal Activity ECHCG (phytotoxicity rating, scale 0-100) ([2]; 63 g ai/ha) | Pre-emerge Herbicidal Activity CASOB (phytotoxicity rating, scale 0-100) ([9]; 63 g ai/ha) | Pre-emerge crop damage CORN (phytotoxicity rating, scale 0-100) ([11]; 63 g ai/ha) | Post-emerge Herbicidal Activity ECHCG ([13]; 63 g ai/ha) | Post-emerge Herbicidal Activity SETVI ([15]; 63 g ai/ha)
95: Post-emerge Herbicidal Activity IPOHE ([16]; 250 g ai/ha) | Post-emerge Herbicidal Activity CHEAL ([17]; 250 g ai/ha)
80: Pre-emerge Herbicidal Activity AMBEL (phytotoxicity rating, scale 0-100) ([3]; 250 g ai/ha) | Pre-emerge Herbicidal Activity IPOHE (phytotoxicity rating, scale 0-100) ([5]; 250 g ai/ha) | Post-emerge Herbicidal Activity ABUTH ([21]; 250 g ai/ha)
70: Pre-emerge crop damage CORN (phytotoxicity rating, scale 0-100) ([11]; 250 g ai/ha) | Pre-emerge crop damage RICE (phytotoxicity rating, scale 0-100) ([12]; 250 g ai/ha) | Post-emerge Herbicidal Activity AMBEL ([14]; 63 g ai/ha) | Post-emerge Herbicidal Activity AMARE ([19]; 63 g ai/ha) | Post-emerge Herbicidal Activity AMARE ([19]; 250 g ai/ha)
30: Pre-emerge Herbicidal Activity AMBEL (phytotoxicity rating, scale 0-100) ([3]; 63 g ai/ha) | Pre-emerge Herbicidal Activity SETVI (phytotoxicity rating, scale 0-100) ([4]; 63 g ai/ha) | Pre-emerge Herbicidal Activity CASOB (phytotoxicity rating, scale 0-100) ([9]; 250 g ai/ha) | Post-emerge Herbicidal Activity SETVI ([15]; 250 g ai/ha) | Post-emerge Herbicidal Activity CHEAL ([17]; 63 g ai/ha) | Post-emerge Herbicidal Activity RICE (crop damage) ([23]; 250 g ai/ha)
50: Pre-emerge Herbicidal Activity ECHCG (phytotoxicity rating, scale 0-100) ([2]; 250 g ai/ha) | Pre-emerge Herbicidal Activity IPOHE (phytotoxicity rating, scale 0-100) ([5]; 63 g ai/ha)
